Legend:
Format in all cases: physicochemical
[1] = Approximate aqueous solubility of salts/co-crystals (visual, solvent addition method); details: water; for solubility: estimated visually, solvent addition method
Description: (§1) A weighed sample was treated with aliquots of the test solvent at room temperature. The mixture was sonicated between additions to facilitate dissolution. Complete dissolution of the test material was determined by visual inspection. Solubility was estimated based on the total solvent used to provide complete dissolution. Some samples were then heated and observed visually for complete dissolution. The actual solubility may be greater than the value calculated because of the use of solvent aliquots that were too large or due to a slow rate of dissolution. […] If complete dissolution was achieved as a result of only one aliquot addition, the solubility is expressed as “greater than.”

[2] = Deliquescence of salts/co-crystals during exposure to 75% RH; details: ambient temperature, 3 day exposure; for Observation (deliquescence): visual
Description: The salts identified from the salt/co-crystal screen of Compound I (see section 4 above) were assessed visually for deliquescence during exposure to 75% RH at ambient temperature (Table 5). […] The materials from these experiments were recovered and re-analyzed by XRPD to determine if changes in solid form occurred.

[3] = XRPD analysis of remaining solids from aqueous solubility assessments; details: solids recovered from mother liquor of aqueous solubility assessment
Description: Compound I ethylenediamine A+B disproportionated, as peaks similar to those observed for Compound I free acid Material C were observed.

[4] = Dynamic vapor sorption/desorption (DVS); details: for material recovered from the DVS analysis compared with starting material by XRPD: after DVS; for DVS weight loss: from about 95% to about 5% RH
Description: Moisture sorption/desorption data were collected on a VTI SGA-100 Vapor Sorption Analyzer. NaCl and PVP were used as calibration standards. Samples were not dried prior to analysis. Sorption and desorption data were collected over a range from 5% to 95% RH at 10% RH increments under a nitrogen purge. The equilibrium criterion used for analysis was less than 0.0100% weight change in 5 minutes with a maximum equilibration time of 3 hours. Data were not corrected for the initial moisture content of the samples.

[5] = Solubility of Compound I sodium salt forms in solvents and binary solvent systems; details: thermodynamic from solid, 60° C., read-out: Solubility
Description: as §1

[6] = Slurry experiments (form stability); details: for XRPD: room temp.; for relative stability of the form (in words): at the conditions evaluated
Description: Solutions were prepared by adding enough solids to a given solvent so that excess solids were present. The mixture was then agitated in a sealed vial at either ambient or an elevated temperature. After a given amount of time, the solids were isolated for analysis.
The formation and stability of solid forms of the sodium salt of Compound I was further evaluated via slurry experiments. The slurries were formed by combining Compound I sodium Pattern A and a solvent, and allowing the slurry to equilibrate at room temperature. If a free flowing slurry was not achieved, an additional amount of the respective solvent was added before the room temperature equilibration step. All slurries were isolated via centrifuge filtration after five days and twelve days of equilibration. The solids were analyzed by XRPD to check for pattern conversion (Table 13).

[7] = Stability at elevated temperatures (XRPD, HPLC); details: for chemical and physical form changes after storing at elevated temperature: about 60° C.; for HPLC: after storage at 60 ° C. (time point not given)
Description: The stability of Compound I sodium Patterns A, C, and D and Form B, at about 60° C. was evaluated. These forms were weighed into vials covered with a Kimwipe tissue and stored in an oven at 60° C. and ambient pressure. After three days and ten days of exposure, the solids were analyzed by XRPD to check for form conversion. […].

[8] = acetone and/or isopropanol (trituration, single form or competitive slurry)
[9] = solvent systems with high water activity

Structure (SMILES): O=C(O)c1cc(-c2ccc(OC3CC3)c(Cl)c2)ncn1 (racemic) [Compound I arginine Material A, 6-(3-chloro-4-cyclopropoxyphenyl)pyrimidine-4-carboxylic acid]
- aqueous solubility (in words) ([1]; listed as Compound I Arginine Material A): suitable aqueous solubility

Structure (SMILES): O=C(O)c1cc(-c2ccc(OC3CC3)c(Cl)c2)ncn1 (racemic) [Compound I lysine Material A, 6-(3-chloro-4-cyclopropoxyphenyl)pyrimidine-4-carboxylic acid]
- solubility ([1]; thermodynamic from solid, read-out: Solubility): < 4000 µg/mL
- aqueous solubility (in words) ([1]; listed as Compound I lysine material A): poor low aqueous solubility
- Observation (deliquescence) [2]: no deliquescence

Structure (SMILES): O=C(O)c1cc(-c2ccc(OC3CC3)c(Cl)c2)ncn1 [Compound I benzathine Form A, 6-(3-chloro-4-cyclopropoxyphenyl)pyrimidine-4-carboxylic acid]
- Result (XRPD of remaining solids) [3]: remained unchanged by XRPD
- Result (XRPD of remaining solids) ([3]; listed as Benzathine A): Benzathine A
- aqueous solubility (in words) [1]: poor low aqueous solubility
- solubility ([1]; listed as Benzathine A): <7000 µg/mL
- Result (XRPD after exposure) ([2]; listed as Benzathine A): Benzathine A
- Observation (deliquescence) [2]: no deliquescence

Structure (SMILES): O=C(O)c1cc(-c2ccc(OC3CC3)c(Cl)c2)ncn1 [Compound I diethanolamine Form A, 6-(3-chloro-4-cyclopropoxyphenyl)pyrimidine-4-carboxylic acid]
- hygroscopicity by DVS analysis (in words) [4]: not hygroscopic
- DVS weight loss upon equilibration at about 5% RH [4]: about 0.2%
- material recovered from the DVS analysis compared with starting material by XRPD [4]: substantially the same as the starting material
- DVS weight gain ([4]; from about 5 to about 95% RH): ~0.48%
- DVS weight loss [4]: ~0.47%
- aqueous solubility (in words) [1]: desirable aqueous solubility
- solubility [1]: above 260 mg/mL
- Observation (deliquescence) [2]: no deliquescence

Structure (SMILES): O=C(O)c1cc(-c2ccc(OC3CC3)c(Cl)c2)ncn1 [Compound I diethylamine Material A, 6-(3-chloro-4-cyclopropoxyphenyl)pyrimidine-4-carboxylic acid]
- hygroscopicity by DVS analysis (in words) [4]: hygroscopic
- DVS weight loss upon equilibration at about 5% RH [4]: about 0.08%
- material recovered from the DVS analysis compared with starting material by XRPD [4]: substantially the same as the starting material
- DVS weight gain ([4]; from about 5 to about 95% RH): ~2.12%
- DVS weight loss [4]: ~1.92%
- gain observed by DVS analysis ([4]; sorption cycle): ~2 wt %
- aqueous solubility (in words) [1]: desirable aqueous solubility
- solubility [1]: ~30000 µg/mL
- solubility ([1]; listed as Diethylamine A): >30000 µg/mL
- Observation (deliquescence) [2]: no deliquescence

Structure (SMILES): O=C(O)c1cc(-c2ccc(OC3CC3)c(Cl)c2)ncn1 [Compound I ethanolamine Material A, 6-(3-chloro-4-cyclopropoxyphenyl)pyrimidine-4-carboxylic acid]
- aqueous solubility (in words) [1]: poor low aqueous solubility
- solubility ([1]; listed as Ethanolamine A): <4000 µg/mL
- Observation (deliquescence) [2]: no deliquescence

Structure (SMILES): O=C(O)c1cc(-c2ccc(OC3CC3)c(Cl)c2)ncn1 [Compound I meglumine Material A, 6-(3-chloro-4-cyclopropoxyphenyl)pyrimidine-4-carboxylic acid]
- aqueous solubility (in words) [1]: suitable aqueous solubility

Structure (SMILES): O=C(O)c1cc(-c2ccc(OC3CC3)c(Cl)c2)ncn1 [Compound I sodium Pattern A, 6-(3-chloro-4-cyclopropoxyphenyl)pyrimidine-4-carboxylic acid]
- solubility ([5]; organic solvent or mixture, 2-MeTHF): < 1100 µg/mL
- solubility ([5]; organic solvent or mixture, ACN): < 1200 µg/mL
- solubility ([5]; organic solvent or mixture, Acetone): < 1300 µg/mL
- solubility ([5]; organic solvent or mixture, BuOH): < 1200 µg/mL
- solubility ([5]; organic solvent or mixture, DCM): < 1300 µg/mL
- solubility ([5]; organic solvent or mixture, DMF): 5800 to 7700 µg/mL
- solubility ([5]; organic solvent or mixture, DMSO): 7500 to 11300 µg/mL
- solubility ([5]; organic solvent or mixture, EtOAc): < 1100 µg/mL
- solubility ([5]; organic solvent or mixture, EtOH): < 1300 µg/mL
- solubility ([5]; organic solvent or mixture, Heptane): < 1200 µg/mL
- solubility ([5]; organic solvent or mixture, IPA): < 1100 µg/mL
- solubility ([5]; organic solvent or mixture, IPAc): < 1100 µg/mL
- solubility ([5]; organic solvent or mixture, MEK): < 1300 µg/mL
- solubility ([5]; organic solvent or mixture, MIBK): < 1200 µg/mL
- solubility ([5]; organic solvent or mixture, MTBE): < 1100 µg/mL
- solubility ([5]; organic solvent or mixture, MeOH): 5000 to 6700 µg/mL
- solubility ([5]; organic solvent or mixture, NMP): 10300 to 20500 µg/mL
- solubility ([5]; organic solvent or mixture, THF): < 1300 µg/mL
- solubility ([5]; organic solvent or mixture, Toluene): < 1100 µg/mL
- solubility ([5]; organic solvent or mixture, c-Hexane): < 1200 µg/mL
- solubility ([5]; Water): 10000 to 20000 µg/mL
- XRPD ([6]; ACN slurry, 12 days, dry): Amorphous
- XRPD ([6]; ACN slurry, 12 days, wet): Amorphous
- XRPD ([6]; DCM slurry, 12 days, dry): Low
- XRPD ([6]; DCM slurry, 12 days, wet): Low
- XRPD ([6]; EtOAc slurry, 5 days): Amorphous
- XRPD ([6]; EtOH slurry, 5 days): Amorphous
- XRPD ([6]; THF slurry, 5 days): Amorphous
- XRPD ([6]; THF slurry, 12 days, dry): Amorphous
- XRPD ([6]; THF slurry, 12 days, wet): Amorphous
- form conversion in slurry / trituration [6, 8]: converted to Compound I sodium Form B
- relative stability of the form (in words) [6]: metastable relative to Compound I sodium Form B
- form conversion in slurry / trituration [6, 9]: rehydrated to Compound I Form E
- stability in slurry (in words) ([6]; water, toluene, DCM and MEK): stable as a single form for about five days
- hygroscopicity by DVS analysis (in words) [4]: hygroscopic
- deliquescence (in words) ([4]; DVS analysis): did not show any indications of deliquescence
- material recovered from the DVS analysis compared with starting material by XRPD [4]: substantially the same as the starting material
- DVS weight gain ([4]; at 60% RH): about 4.9%
- DVS weight gain ([4]; at 90% RH): about 21.2%
- chemical and physical form changes after storing at elevated temperature [7]: No chemical and physical form changes were observed
- HPLC [7]: >99.9 % AUC

Structure (SMILES): O=C(O)c1cc(-c2ccc(OC3CC3)c(Cl)c2)ncn1 [Compound I sodium Pattern C, 6-(3-chloro-4-cyclopropoxyphenyl)pyrimidine-4-carboxylic acid]
- form conversion in slurry / trituration [6, 8]: converted to Compound I sodium Form B
- relative stability of the form (in words) [6]: not stable
- time stable in slurry ([6]; methanol): about 10 days
- form conversion in slurry / trituration [6, 9]: covert to Compound I sodium Form E
- hygroscopicity by DVS analysis (in words) [4]: slightly hygroscopic
- material recovered from the DVS analysis compared with starting material by XRPD [4]: substantially the same as the starting material
- DVS weight gain ([4]; at 60% RH): about 1.9%
- DVS weight gain ([4]; at 90% RH): about 8.4%
- chemical and physical form changes after storing at elevated temperature [7]: No chemical and physical form changes were observed
- HPLC [7]: >99.9 % AUC

Structure (SMILES): O=C(O)c1cc(-c2ccc(OC3CC3)c(Cl)c2)ncn1 [Compound I tromethamine Form A, 6-(3-chloro-4-cyclopropoxyphenyl)pyrimidine-4-carboxylic acid]
- hygroscopicity by DVS analysis (in words) [4]: not hygroscopic
- DVS weight loss upon equilibration at about 5% RH [4]: about 0.01%
- material recovered from the DVS analysis compared with starting material by XRPD [4]: substantially the same as the starting material
- DVS weight gain ([4]; from about 5 to about 95% RH): ~0.25%
- DVS weight loss [4]: ~0.26%
- aqueous solubility (in words) [1]: desirable aqueous solubility
- solubility [1]: ~134000 µg/mL
- solubility ([1]; listed as Tromethamine A): >134000 µg/mL
- Observation (deliquescence) [2]: no deliquescence

Source: patent US11173156B2, “Solid forms of a kynurenine-3-monooxygenase inhibitor” (CHDI Foundation, Inc., priority 2019, dated 2021)
